Molecular target: T1, MALT1 (Homo sapiens, UniProt Q9UDY8)
T1 sequence (Q9UDY8 1-824): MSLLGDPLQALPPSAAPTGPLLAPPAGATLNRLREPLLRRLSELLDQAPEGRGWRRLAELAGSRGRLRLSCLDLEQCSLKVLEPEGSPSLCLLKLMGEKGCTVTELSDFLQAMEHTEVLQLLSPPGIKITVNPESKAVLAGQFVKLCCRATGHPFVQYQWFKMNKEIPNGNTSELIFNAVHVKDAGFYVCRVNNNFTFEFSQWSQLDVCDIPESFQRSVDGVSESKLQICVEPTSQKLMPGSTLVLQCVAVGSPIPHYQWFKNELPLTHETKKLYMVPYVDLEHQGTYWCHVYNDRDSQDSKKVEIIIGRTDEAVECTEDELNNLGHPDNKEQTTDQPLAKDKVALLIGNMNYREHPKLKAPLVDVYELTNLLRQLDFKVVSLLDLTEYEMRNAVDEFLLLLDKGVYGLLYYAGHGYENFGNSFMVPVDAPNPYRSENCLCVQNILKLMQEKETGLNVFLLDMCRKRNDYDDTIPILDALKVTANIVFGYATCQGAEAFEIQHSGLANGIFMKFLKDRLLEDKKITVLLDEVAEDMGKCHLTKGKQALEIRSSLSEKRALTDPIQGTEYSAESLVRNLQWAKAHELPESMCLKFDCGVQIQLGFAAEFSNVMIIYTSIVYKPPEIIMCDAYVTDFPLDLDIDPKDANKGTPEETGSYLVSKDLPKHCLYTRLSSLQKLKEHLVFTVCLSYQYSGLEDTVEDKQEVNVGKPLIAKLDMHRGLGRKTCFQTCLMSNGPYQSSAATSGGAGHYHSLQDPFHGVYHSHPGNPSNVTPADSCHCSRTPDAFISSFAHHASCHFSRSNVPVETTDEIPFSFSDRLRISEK
Assay: MALT1 protease inhibition assay (AMC-labeled peptide, fluorescence 360/460)
Format: biochemical
Conditions: substrate Ac-LRSR-AMC, 15 min preincubation, 90 min at 25° C.
Experimental: Test compounds of the present invention (in 100% DMSO) were spotted into a 384-well dilution plate and serially diluted to the required concentrations with DMSO. Then, 0.2 μL of the test compounds were transferred into a new 384-well reaction plate by Echo following centrifugation. The MALT enzyme and its substrate, AMC-labeled peptide, were prepared in 1× protease buffer to yield 2× enzyme solution and 2× peptide solution. Subsequently, 10 μL of 2× enzyme solution was added into the 384-well reaction plate, incubating with the test compounds for 15 minutes at 25° C. After that, 10 μL of 2× peptide solution was added into the plate, continuing to incubate for 90 minutes at 25° C. The plate was then placed on an Envision multifunctional microplate reader to collect raw data, which would be converted into inhibition rate:
Inhibition rate %=(max−sample)/(max−min)*100%. • “max” values were measured using the reaction with enzyme but no compound treated, while “min” values were generated from control wells containing assay buffer without enzyme.
Curve fitting was done with Graphpad Prism software to determine the IC50 values. The specific experimental operations are as follows:
58.82 g Na Citrate·2H2O powder was added into 140 mL ddH2O and mixed in a 37° C. water bath. Once there were no visible particles, the remaining solutions were added successively with continuous stirring for 10 minutes. The final volume was adjusted to 200 mL. The buffer was stored at room temperature. DTT was added before use.
• 1) All test compounds were diluted from 10 mM stock solution into 1 mM in a 384 well dilution plate (labcyte, PP-0200); • 2) Ten various concentrations of the diluted compound solution above were obtained by serial dilution at an equal ratio of 1:3; • 3) 0.2 μL DMSO was transferred to two empty wells of the 384 reaction plate as blank controls without compound and enzyme respectively; • 4) 0.2 μL of the test compound at different concentrations was also transferred into the 384 reaction plate by Echo, with two duplicate wells for each concentration, then the plate was centrifuged at 1000 rpm for 1 min.
• 1) The MALT1 protease and AMC-labeled peptide was prepared in 1× protease buffer to obtain 2× enzyme solution and 2× peptide solution. 10 μL of 2× enzyme solution was added into the 384-well reaction plate. The plate was centrifuged at 1000 rpm for 1 min and incubated for 15 min at 25° C. • 2) 10 μL of 2× peptide solution was then transferred to the 384 reaction plate, and the plate was centrifuged at 1000 rpm for 1 min and incubate for 90 min at 25° C.

| Compound | IC50 [nM] |
| --- | --- |
| Cc1nnc(CNC(=O)c2ncc(NC(=O)c3cc(F)c(-c4ccc(F)cc4N)cc3Cl)cc2Cl)o1 [Example A462, 5-(2′-amino-5-chloro-2,4′-difluoro-[1,1′-biphenyl]-4-carboxamido)-3-chloro-N-((5-methyl-1,3,4-oxadiazol-2-yl)methyl)picolinamide] | 10 to 100 |
| Nc1cc(F)ccc1-c1cc(Cl)c(C(=O)Nc2cnc(C(=O)NCc3nc[nH]n3)c(Cl)c2)cc1F [Example A463, N-((1H-1,2,4-triazol-3-yl)methyl)-5-(2′-amino-5-chloro-2,4′-difluoro-[1,1′-biphenyl]-4-carboxamido)-3-chloropicolinamide] | 10 to 100 |
| CCSCCNC(=O)c1ncc(NC(=O)c2cc(F)c(-c3ccc(F)cc3N)cc2Cl)cc1Cl [Example A464, 5-(2′-amino-5-chloro-2,4′-difluoro-[1,1′-biphenyl]-4-carboxamido)-3-chloro-N-(2-(ethylthio)ethyl) picolinamide] | 10 to 100 |
| NC(=O)CNC(=O)c1ncc(NC(=O)c2cc(F)c(-c3ccc(F)cc3N)cc2Cl)cc1Cl [Example A465, N-(2-amino-2-oxoethyl)-5-(2′-amino-5-chloro-2,4′-difluoro-[1,1′-biphenyl]-4-carboxamido)-3-chloropicolinamide] | 10 to 100 |
| N#CC1(CNC(=O)c2ncc(NC(=O)c3cc(F)c(-c4ccc(F)cc4N)cc3Cl)cc2Cl)CC1 [Example A466, 5-(2′-amino-5-chloro-2,4′-difluoro-[1,1′-biphenyl]-4-carboxamido)-3-chloro-N-((1-cyanocyclopropyl)methyl)picolinamide] | 10 to 100 |
| Nc1cc(F)ccc1-c1cc(Cl)c(C(=O)Nc2cnc(C(=O)NCC(F)(F)C(F)(F)F)c(Cl)c2)cc1F [Example A467, 5-(2′-amino-5-chloro-2,4′-difluoro-[1,1′-biphenyl]-4-carboxamido)-3-chloro-N-(2,2,3,3,3-pentafluoropropyl) picolinamide] | 100 to 500 |
| Nc1cc(F)ccc1-c1cc(Cl)c(C(=O)Nc2cnc(C(=O)NCC3(C(F)(F)F)CC3)c(Cl)c2)cc1F [Example A468, 5-(2′-amino-5-chloro-2,4′-difluoro-[1,1′-biphenyl]-4-carboxamido)-3-chloro-N-((1-(trifluoromethyl)cyclopropyl)methyl) picolinamide] | 100 to 500 |
| CS(=O)(=O)CCNC(=O)c1ncc(NC(=O)c2cc(F)c(-c3ccc(F)cc3N)cc2Cl)cc1Cl [Example A469, 5-(2′-amino-5-chloro-2,4′-difluoro-[1,1′-biphenyl]-4-carboxamido)-3-chloro-N-(2-(methylsulfonyl)ethyl) picolinamide] | 10 to 100 |
| C#Cc1cncc(N)c1-c1cc(Cl)c(C(=O)Nc2cnc(C(=O)NCC(F)F)c(Cl)c2)cc1F [Example A471, 5-(4-(3-amino-5-ethynylpyridin-4-yl)-2-chloro-5-fluorobenzamido)-3-chloro-N-(2,2-difluoroethyl)picolinamide] | ≤ 10 |
| C#Cc1cncc(N)c1-c1cc(Cl)c(C(=O)Nc2cnc(C(=O)NCCF)c(Cl)c2)cc1F [Example A472, 5-(4-(3-amino-5-ethynylpyridin-4-yl)-2-chloro-5-fluorobenzamido)-3-chloro-N-(2-fluoroethyl)picolinamide] | ≤ 10 |
| Nc1cncc(C2CC2)c1-c1cc(Cl)c(C(=O)Nc2cnc(-n3nccn3)c(C(F)(F)F)c2)cc1F [Example A475, N-(6-(2H-1,2,3-triazol-2-yl)-5-(trifluoromethyl)pyridin-3-yl)-4-(3-amino-5-cyclopropylpyridin-4-yl)-2-chloro-5-fluorobenzamide] | ≤ 10 |
| C#Cc1cncc(N)c1-c1cc(Cl)c(C(=O)Nc2cnc(C(=O)NCC(C)(C)C)c(Cl)c2)cc1F [Example A478, 5-(4-(3-amino-5-ethynylpyridin-4-yl)-2-chloro-5-fluorobenzamido)-3-chloro-N-neopentylpicolinamide] | ≤ 10 |
| C#Cc1cncc(N)c1-c1cc(Cl)c(C(=O)Nc2cnc(C(=O)NCC)c(Cl)c2)cc1F [Example A479, 5-(4-(3-amino-5-ethynylpyridin-4-yl)-2-chloro-5-fluorobenzamido)-3-chloro-N-ethylpicolinamide] | ≤ 10 |
| C#Cc1cnc(F)c(N)c1-c1cc(Cl)c(C(=O)Nc2cnc(-n3nccn3)c(Cl)c2)cc1F [Example A485, 4-(3-amino-5-ethynyl-2-fluoropyridin-4-yl)-2-chloro-N-(5-chloro-6-(2H-1,2,3-triazol-2-yl)pyridin-3-yl)-5-fluorobenzamide] | ≤ 10 |
| C#Cc1c(F)ncc(N)c1-c1cc(Cl)c(C(=O)Nc2cnc(-n3nccn3)c(Cl)c2)cc1F [Example A486, 4-(5-amino-3-ethynyl-2-fluoropyridin-4-yl)-2-chloro-N-(5-chloro-6-(2H-1,2,3-triazol-2-yl)pyridin-3-yl)-5-fluorobenzamide] | ≤ 10 |
| C=C(C)c1cncc(N)c1-c1cc(Cl)c(C(=O)Nc2cnc(-n3nccn3)c(Cl)c2)cc1F [Example A504, 4-(3-amino-5-(prop-1-en-2-yl)pyridin-4-yl)-2-chloro-N-(5-chloro-6-(2H-1,2,3-triazol-2-yl)pyridin-3-yl)-5-fluorobenzamide] | ≤ 10 |
| C=Cc1cncc(N)c1-c1cc(Cl)c(C(=O)Nc2cnc(-n3nccn3)c(Cl)c2)cc1F [Example A507, 4-(3-amino-5-vinylpyridin-4-yl)-2-chloro-N-(5-chloro-6-(2H-1,2,3-triazol-2-yl)pyridin-3-yl)-5-fluorobenzamide] | ≤ 10 |
| Nc1cncc(Br)c1-c1cc(Cl)c(C(=O)Nc2cnc(-n3nccn3)c(C(F)(F)F)c2)cc1F [Example A517, N-(6-(2H-1,2,3-triazol-2-yl)-5-(trifluoromethyl)pyridin-3-yl)-4-(3-amino-5-bromopyridin-4-yl)-2-chloro-5-fluorobenzamide] | ≤ 10 |
| C#Cc1cncc(N)c1-c1cc(Cl)c(C(=O)Nc2ccnc(C(F)(F)F)c2)cc1F [Example A518, 4-(3-amino-5-ethynylpyridin-4-yl)-2-chloro-5-fluoro-N-(2-(trifluoromethyl)pyridin-4-yl)benzamide] | ≤ 10 |
| Nc1cnc(F)c(Br)c1-c1cc(Cl)c(C(=O)Nc2cnc(-n3nccn3)c(C(F)(F)F)c2)cc1F [Example A521, N-(6-(2H-1,2,3-triazol-2-yl)-5-(trifluoromethyl)pyridin-3-yl)-4-(5-amino-3-bromo-2-fluoropyridin-4-yl)-2-chloro-5-fluorobenzamide] | ≤ 10 |
| C#Cc1cnc(C)c(N)c1-c1cc(Cl)c(C(=O)Nc2cnc(-n3nccn3)c(C(F)(F)F)c2)cc1F [Example A551, N-(6-(2H-1,2,3-triazol-2-yl)-5-(trifluoromethyl)pyridin-3-yl)-4-(3-amino-5-ethynyl-2-methylpyridin-4-yl)-2-chloro-5-fluorobenzamide] | ≤ 10 |
| C#Cc1cnc(F)c(N)c1-c1cc(Cl)c(C(=O)Nc2cnc(-n3nccn3)c(C(F)(F)F)c2)cc1F [Example A552, N-(6-(2H-1,2,3-triazol-2-yl)-5-(trifluoromethyl)pyridin-3-yl)-4-(3-amino-5-ethynyl-2-fluoropyridin-4-yl)-2-chloro-5-fluorobenzamide] | ≤ 10 |
| C#Cc1cnc(Cl)c(N)c1-c1cc(Cl)c(C(=O)Nc2cnc(-n3nccn3)c(C(F)(F)F)c2)cc1F [Example A553] | ≤ 10 |

From patent US20240336594A1, “SIX-MEMBERED ARYL OR HETEROARYL AMIDES, AND COMPOSITION AND USE THEREOF” (BETTA PHARMACEUTICALS CO., LTD, priority 2021, published 2024)
